Where two headings read alike, the source gives them in different places. Bounds are passed on as bounds.

The subject of series [1] is isolated rat aortic rings. As to the kind of experiment: Vascular smooth muscle relaxation, isolated rat aortic rings pre-contracted with phenylephrine. The source says:
The ability of h-SCP (SEQ ID NO:1) to relax vascular smooth muscle was examined in isolated, rat aortic rings pre-contracted with phenylephrine (PE) (FIG. 8). […] The responses caused by h-SCP (SEQ ID NO:1) were inhibited by anti-sauvagine-30 (SEQ ID NO:118).

The nature of a further series: in vivo. The following applies: mongrel, dog, iv, [SEQ ID NO: 1] plasma concentration. As to the method: A sandwich immunoassay was developed using an affinity purified goat polyclonal antibody, specific to h-SCP that was pre-coated onto a microplate with integrated electrodes. h-SCP molecules present in the sample will bind to the capture polyclonal antibody coated on the plate. After washing away any unbound substances, a sulfo-tagged mouse monoclonal anti-h-SCP antibody was added. This conjugated antibody will bind to the h-SCP molecules captured on the microplate and the quantity of analyte was determined by electrochemiluminescence. The amount of signal generated is directly proportional to the h-SCP concentration in the sample or standard. The standard curve range is 3.125-1600 pg/mL with a quantifiable range from 10-800 pg/mL. A sample volume of 25 μL (in duplicate) is required for this assay. This immunoassay is specific for human and dog stresscopin and human urocortin III (h-UCN3). […] After completion of the analysis, based on a comparison of reference standards between the ELISA and HPLC method, a correction factor of 1.57 was applied to all bioanalytical data.
The effects of h-SCP (SEQ ID NO:1) on cardiovascular function were also assessed in anaesthetized dogs with advanced, irreversible heart failure of ischemic etiology (Sabbah et al., 1991, Am. J. Physiol., vol. 260, pp. H1379-H1384; Sabbah et al., 1994, Circulation, vol. 98, pp. 2852-2859; Chandler et al., 2002, Circ. Res., vol. 91, pp. 278-280). Progressive, advanced heart failure was produced in mongrel dogs by multiple sequential intracoronary microembolization with polystyrene latex microspheres. Dose infusions of 2.2, 4.3, and 7.3 ng/kg/min were administered intravenously over 60 minutes just following or just prior to hemodynamic, angiographic, echocardiographic, and Doppler measurements using conventional hemodynamic, angiographic, echocardiographic, and radiographic methods. The h-SCP polypeptide (SEQ ID NO:1) produced dose- (infusion-) dependent increases in LVEF and SV and decreases in left ventricular end diastolic pressure (LVEDP), left ventricular pressure during isovolumic relaxation (LV-dP/dt), systemic vascular resistance (SVR), and left ventricular end-systolic volume (LVESV) that correlated with plasma concentration. No significant change in heart rate, peak systolic aortic blood pressure, LV+dP/dt, mean pulmonary artery pressure, mean pulmonary artery wedge pressure, right atrial pressure, or myocardial oxygen consumption were recorded following any of the 1 hour intravenous infusions (Table 18 and FIGS. 12 A & B). The improvement in LV systolic and diastolic function was not associated with the development of de novo ventricular arrhythmias.
In order to determine the threshold effective dose-infusion in dogs with advanced heart failure, a further study was performed at lower dose infusions. In addition, the opportunity was taken to explore whether the increase in LVEF produced by higher dose-infusions of 4.3 ng/kg/min would remain stable over a longer infusion period, i.e. 120 minutes.

Series [2] is described as follows: Human pharmacokinetics, healthy subjects, 7.5-hour continuous ascending dose IV infusion. The following applies: for half-life / clearance / Cmax / Tmax / AUC(0-inf): human, in vivo. It counts as in vivo. The protocol: In healthy subjects following a 7.5-hour continuous ascending dose IV infusion of h-SCP (SEQ ID NO:1) noncompartmental pharmacokinetic analyses were performed to determine plasma concentrations of h-SCP (SEQ ID NO:1). Plasma h-SCP (SEQ ID NO:1) reached the steady state shortly after initiating the IV infusion (FIG. 16A). […] Within 30 minutes, plasma h-SCP (SEQ ID NO:1) was reduced to ≦20% of the h-SCP (SEQ ID NO:1) level at the end of infusion. […] However, the additional compartment's contribution to the overall exposure and accumulation of h-SCP (SEQ ID NO:1) is likely marginal as indicated by the effective half-lives.

For a further series, the target named is T1, h-CRHR1 (Homo sapiens, UniProt P34998).
T1 sequence (P34998 24-415): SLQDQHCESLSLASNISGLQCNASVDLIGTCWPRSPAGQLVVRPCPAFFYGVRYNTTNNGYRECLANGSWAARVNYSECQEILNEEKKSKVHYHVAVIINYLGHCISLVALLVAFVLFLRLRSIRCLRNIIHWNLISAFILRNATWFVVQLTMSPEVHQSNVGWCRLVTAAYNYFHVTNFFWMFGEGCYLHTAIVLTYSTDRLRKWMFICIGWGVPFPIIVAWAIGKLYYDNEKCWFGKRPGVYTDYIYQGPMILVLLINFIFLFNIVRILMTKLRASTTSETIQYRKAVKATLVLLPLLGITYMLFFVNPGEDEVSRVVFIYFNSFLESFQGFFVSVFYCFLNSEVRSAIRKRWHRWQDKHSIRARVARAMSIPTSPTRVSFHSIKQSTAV
The following applies: h-CRHR1 transfected HEK-293 cells, approximated values from concentration response curves (Hsu et al., 2001); cited from earlier work.

The target of another series is m-CRHR2b (Mus musculus, UniProt Q60748). As to conditions: m-CRHR2b transfected CHO-K1 cells (Lewis et al., 2001); cited from earlier work.
Chain of m-CRHR2b (Q60748 1-431 isoform Q60748-2): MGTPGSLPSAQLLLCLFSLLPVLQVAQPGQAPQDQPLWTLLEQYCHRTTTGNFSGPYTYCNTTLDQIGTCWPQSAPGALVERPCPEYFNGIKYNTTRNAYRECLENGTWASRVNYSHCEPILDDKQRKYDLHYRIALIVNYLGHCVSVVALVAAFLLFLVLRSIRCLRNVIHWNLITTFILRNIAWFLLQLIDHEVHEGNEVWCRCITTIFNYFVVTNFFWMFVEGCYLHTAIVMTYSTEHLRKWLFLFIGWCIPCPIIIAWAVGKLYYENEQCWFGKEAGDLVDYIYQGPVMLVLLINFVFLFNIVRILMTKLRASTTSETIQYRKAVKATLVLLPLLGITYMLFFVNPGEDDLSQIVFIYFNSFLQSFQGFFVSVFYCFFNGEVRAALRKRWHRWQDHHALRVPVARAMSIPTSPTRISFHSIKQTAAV
Setting [3] is: healthy subjects, infusion rate 9/18/36 ng/kg/min, mean, N = 5.
[4] abbreviates: healthy subjects, infusion rate 18/54/72 ng/kg/min, mean, N = 3.
Setting [5] is: healthy subjects, infusion rate 36/72/144 ng/kg/min, N = 1.
Where [6] appears, read: healthy subjects, infusion rate 54/72/108 ng/kg/min, mean, N = 2.

“H-TKFTLSLDVPTNIMNLLFNIAKAKNLRAQAAANAHLMAQI-NH2 [SEQ ID NO: 1, TKFTLSLDVPTNIMNLLFNIAKAKNLRAQAAANAHLMAQI-NH2]”: the “fold less potent than h-UCN2” value in series [1] turned out to be 10 fold. This molecule also yielded a pA50 of relaxation in series [1] (rat aortic rings pre-contracted with phenylephrine) of 6.05±0.12. The level at 1 h in “in vivo” (0.22 ng/kg/min) came out at 0.0412 ± 0.0149 ng/mL; in the series “in vivo” (0.43 ng/kg/min), 0.0372 ± 0.0139 ng/mL; in the series “in vivo” (2.2 ng/kg/min), 0.141 ± 0.0182 ng/mL; in “in vivo” (4.3 ng/kg/min), 0.178 ± 0.0211 ng/mL; in the series “in vivo” (7.3 ng/kg/min), 0.279 ± 0.0296 ng/mL. Besides, the level at time molar at 1 h in “in vivo” (0.22 ng/kg/min) came out at 0.0094 ± 0.0034 nM; in the series “in vivo” (0.43 ng/kg/min) it was 0.0085 ± 0.0032 nM; in the series “in vivo” (2.2 ng/kg/min) it was 0.0324 ± 0.0042 nM; in the series “in vivo” (4.3 ng/kg/min), 0.0408 ± 0.0048 nM; in “in vivo” (7.3 ng/kg/min), 0.0639 ± 0.0068 nM. Further, the level at 2 h in “in vivo” (4.3 ng/kg/min) was 0.249 ± 0.0479 ng/mL. The molecule also registered a level at time molar at 2 h in the series “in vivo” (4.3 ng/kg/min) of 0.057 ± 0.011 nM. The “human equivalent dose to achieve Cpss of 620 pg/mL” value in series [2] (dose = CL × Cpss / weight, 70 kg) is 4.4 ng/kg/min. The “expected steady-state plasma concentration (Cpss)” value in series [2] (human starting dose of 0.1 ng/kg/min, pharmacokinetic-based approach) worked out at 8.6 pg/mL. Further, the half-life – broadly, the time in which the quantity being followed falls by half – in series [2] (healthy subjects, across dose groups, read-out: Mean effective half-life) lay within 1.54 to 14.2 h; in series [2] (healthy subjects, across dose groups, read-out: Mean terminal half-life) it was 2.13 to 28.5 h. The clearance in series [2] (healthy subjects, across dose groups, read-out: Mean systemic clearance) is 0.27 to 0.42 L/h/kg; in series [2] (healthy subjects, infusion rate 1/3/9 ng/kg/min, mean, N = 4, read-out: CL (converted)), 0.28 L/h/kg; in series [2] (healthy subjects, infusion rate 9/18/36 ng/kg/min, mean, N = 5, read-out: CL (converted)), 0.33 L/h/kg; in series [2] (healthy subjects, infusion rate 18/36/72 ng/kg/min, N = 1, read-out: CL (converted)) it was 0.28 L/h/kg; in series [2] (healthy subjects, infusion rate 18/54/72 ng/kg/min, mean, N = 3, read-out: CL (converted)), 0.41 L/h/kg; in series [2] (healthy subjects, infusion rate 36/72/144 ng/kg/min, N = 1, read-out: CL (converted)), 0.27 L/h/kg. Besides, the clearance was 0.42 L/h/kg in series [2] (healthy subjects, infusion rate 54/72/108 ng/kg/min, mean, N = 2, read-out: CL (converted)) and about 500 mL/min in series [2] (iv, healthy humans, intravenous infusion, for a 70-kg person, read-out: clearance (CL) (converted)). Further, the Cmax (in general, the maximum level reached in the sampled fluid or tissue) stood at 0.248 ng/mL in series [2] (healthy subjects, infusion rate 0.1/0.3/1 ng/kg/min, mean, N = 5); 7.26 ng/mL in series [2] (setting [3]); 14.1 ng/mL in series [2] (healthy subjects, infusion rate 18/36/72 ng/kg/min, mean, N = 2); 9.01 ng/mL in series [2] (setting [4]); 29.1 ng/mL in series [2] (setting [5]); 14.6 ng/mL in series [2] (setting [6]). In addition, the time to peak (Tmax) (commonly the time from dosing to the highest level) was 7.47 h in series [2] (healthy subjects, infusion rate 0.1/0.3/1 ng/kg/min, median, N = 5); 7 h in series [2] (healthy subjects, infusion rate 1/3/9 ng/kg/min, median, N = 5); 7 h in series [2] (healthy subjects, infusion rate 9/18/36 ng/kg/min, median, N = 5); 6.46 h in series [2] (healthy subjects, infusion rate 18/36/72 ng/kg/min, median, N = 2); 5.5 h in series [2] (healthy subjects, infusion rate 18/54/72 ng/kg/min, median, N = 3); 7.42 h in series [2] (setting [5]). For the same molecule, the time of peak concentration (Tmax) in series [2] (healthy subjects, infusion rate 54/72/108 ng/kg/min, median, N = 2) amounted to 6.99 h. Besides, the AUC(0-inf) (as a rule, total exposure, with the tail of the curve extrapolated) was determined as 0.00741 µg·h/mL in series [2] (healthy subjects, infusion rate 1/3/9 ng/kg/min, mean, N = 4); 0.0289 µg·h/mL in series [2] (setting [3]); 0.0687 µg·h/mL in series [2] (healthy subjects, infusion rate 18/36/72 ng/kg/min, N = 1); 0.0559 µg·h/mL in series [2] (setting [4]); 0.138 µg·h/mL in series [2] (setting [5]); 0.0955 µg·h/mL in series [2] (setting [6]).
As to “H-HPGSRIVLSLDVPIGLLQILLEQARARAAREQATTNARILARV-NH2 [SEQ ID NO: 117, HPGSRIVLSLDVPIGLLQILLEQARARAAREQATTNARILARV-NH2, reference compound]”, on h-CRHR1, the “Published pA50” value is >7^3.
Regarding `CC[C@H](C)[C@H](NC(=O)[C@H](CO)NC(=O)[C@H](CC(C)C)NC(=O)[C@@H]1CCCN1C(=O)[C@@H]1CCCN1C(=O)[C@H](CC(=O)O)NC(=O)[C@@H](N)CC(=O)O)C(=O)N[C@@H](CC(=O)O)C(=O)N[C@@H](CC(C)C)C(=O)N[C@H](C(=O)N[C@@H](Cc1ccccc1)C(=O)N[C@@H](Cc1c[nH]cn1)C(=O)N[C@@H](CC(C)C)C(=O)N[C@@H](CC(C)C)C(=O)N[C@@H](CCCNC(=N)N)C(=O)N[C@H](C(=O)N[C@@H](CC(C)C)C(=O)N[C@@H](CC(C)C)C(=O)N[C@@H](CCC(=O)O)C(=O)N[C@@H](CC(C)C)C(=O)N[C@@H](C)C(=O)N[C@@H](CCCNC(=N)N)C(=O)N[C@H](C(=O)N[C@@H](CCC(N)=O)C(=O)N[C@@H](CO)C(=O)N[C@@H](CCC(N)=O)C(=O)N[C@@H](CCCNC(=N)N)C(=O)N[C@@H](CCC(=O)O)C(=O)N[C@@H](CCCNC(=N)N)C(=O)N[C@@H](C)C(=O)N[C@@H](CCC(=O)O)C(=O)N[C@@H](CCC(N)=O)C(=O)N[C@@H](CC(N)=O)C(=O)N[C@@H](CCCNC(=N)N)C(=O)N[C@H](C(=O)N[C@H](C(=O)N[C@@H](Cc1ccccc1)C(=O)N[C@@H](CC(=O)O)C(=O)N[C@@H](CO)C(=O)N[C@H](C(N)=O)C(C)C)[C@@H](C)CC)[C@@H](C)CC)[C@@H](C)O)[C@@H](C)O)[C@@H](C)O` [SEQ ID NO: 114, DDPPLSIDLTFHLLRTLLELARTQSQRERAEQNRIIFDSV-NH2], the “Published pA50” value on m-CRHR2b is on record as 10.06^2.
